Reference: patent publication US10081662B2, “Modified relaxin B chain peptides” (The Florey Institute of Neuroscience and Mental Health, priority 2014, dated 2018)

Assays:
[1] = system: mouse model of isoproterenol (ISO) induced cardiac fibrosis; assay: Mouse model of isoproterenol-induced cardiomyopathy (cardiac fibrosis); format: in vivo; settings: 129SV mice, 14 days, s.c. minipump; relative to isoproterenol treatment
From the text: (§1) Seven to eight-week old male 129SV mice (which are sensitive to tissue injury and fibrosis) and age-matched female Balb/c mice (which are sensitive to changes in airway hyperresponsiveness) were used for the induction of isoproterenol-induced cardiomyopathy and ovalbumin-induced chronic allergic airways disease, respectively. 16 five week-old male C57BL/6 mice were used in the induction of prostate cancer growth. All animals were obtained from Monash Animal Services (Monash University, Clayton, Victoria, Australia) and housed under standard conditions (maintained on an 12 h light-12 h dark lighting cycle with free access to food and water) in the Department of Pharmacology Animal Room at Monash University.
(§2) The mid zone of the male mouse heart and largest lung lobe from female Balb/c mice were fixed in 10% neutral buffered formalin for 24-48 h before being processed and embedded routinely in paraffin wax. Representative sections of tissue, 3-5 um each, were taken and stained with either picrosirius red (Samuel et al. 2011 Lab Invest 91, 675-690) for the detection of interstitial collagen or Masson's trichrome (Royce et al, 2009, Endocrinology 150, 2692-2699) for the detection of subepithelial basement membrane collagen deposition).
(§3) Changes in picrosirius-red stained interstitial collagen or epithelial thickness and subepithelial collagen (fibrosis) around the airway lumen from Masson's trichrome-stained sections; which were all captured (at ×20 magnification) using a SPOT digital camera (Q Imaging, Burnaby, BC, Canada) and analysed with Image J 1.3 software (National Institutes of Health, Bethesda, Md.). Four to five fields per mid zone of the heart or 4-5 airways (of 150-350 μm in diameter) per mouse were assessed. Epithelial thickness and subepithelial collagen regions were traced with a digital pen and the thickness of each region calculated by the imaging software. Results were expressed as mean thickness ([…]) of the 4-5 airways sampled.
The apical region of the heart or second largest lung lobe from each mouse was treated as described previously (Samuel C S, et at., 2003, FASEB J 17, 121-123; Royce et at. 2009, Endocrinology 150, 2692-2699) for the determination of hydroxyproline content. Hydroxyproline values were estimated based on a standard curve constructed with serial dilutions of a 0.1 mg/mL stock of trans-4-hydroxyproline-L-proline (Sigma-Aldrich). Hydroxyproline values were then converted to collagen content as detailed previously (Samuel CS, et al. 2004. Endocrinology 145, 4125-4133) and, in turn, divided by the dry weight of each corresponding left ventricular or lung tissue assessed to yield collagen concentration (a measure of fibrosis). […]

[2] = system: mouse model of OVA-induced chronic allergic airway disease; assay: Mouse model of OVA-induced chronic allergic airway disease; format: in vivo; settings: Balb/c mice
From the text: as §1
Twenty-four hours after the last vehicle/drug administration, methacholine-induced airway reactivity was assessed by invasive plethysmography as described before (Locke et al. 2007, Am J Respir Mol Biol 36, 625-632; Royce et al. 2009, Endocrinology 150, 2692-2699). Mice were anaesthetized intraperitoneally with 200 μg/g ketamine and 10 μg/g xylazine. Tracheotomy was performed using an 18-gauge tracheotomy tube and jugular vein cannulated with a 0.61 9 0.28 mm polyethylene tube (Microtube Extrusions, North Rocks, NSW, Australia), Mice were then placed in a plethysmograph chamber (Buxco Research Systems, Wilmington, N.C., USA) where increasing concentrations of acetyl-β-methacholine (from 31.25 μg/kg to 500 μg/kg) were delivered intravenously in five doses. After every dose, airway resistance and compliance were measured (Biosystem XA version 2.7.9; Buxco Electronics Inc, Wilmington, N.C., USA). The change in airway resistance calculated by the maximal resistance after each dose minus baseline resistance (phosphate buffered saline alone) was plotted against each dose of methacholine evaluated.
as §2, §3
The apical region of the heart or second largest lung lobe from each mouse was treated as described previously (Samuel C S, et at., 2003, FASEB J 17, 121-123; Royce et at. 2009, Endocrinology 150, 2692-2699) for the determination of hydroxyproline content. Hydroxyproline values were estimated based on a standard curve constructed with serial dilutions of a 0.1 mg/mL stock of trans-4-hydroxyproline-L-proline (Sigma-Aldrich). Hydroxyproline values were then converted to collagen content as detailed previously (Samuel CS, et al. 2004. Endocrinology 145, 4125-4133) and, in turn, divided by the dry weight of each corresponding left ventricular or lung tissue assessed to yield collagen concentration (a measure of fibrosis).
The inventors also tested the fibrosis preventing activity of B7-33 C11.23S in a model of chronic allergic airway disease (AAD). […]

[3] = system: rat model of myocardial infarction; assay: Rat model of myocardial infarction-induced heart failure; format: in vivo; settings: vs vehicle
Method: Adult male Sprague-Dawley rats weighing 250-320 g were obtained from Animal Resources Centre, Perth, Wash., Australia. The rats were group housed in a constant temperature of 22±1° C. and a relative humidity of 50-60% under a controlled light-dark cycle of 12 hours. Rats were given access to standard laboratory rat chow and drinking water ad libitum.
Heart failure was induced as previously described (Ruchaya et al., 2014, Exp Physiol 99, 111-122). Breifly, to induce heart failure, rats were anaesthetised with an intramuscular injection of ketamine (60 mg/kg) and medetomide hydrochloride ([…]). A left sided thoracotomy through an opening between the fourth and fifth rib was performed, the heart was exteriorised and the left anterior descending coronary artery was ligated. Anaesthesia was reversed with antipamezole hydrocholide (1 mg/kg). Penicillin (1000 U) and buprenorphine (0.05 mg/kg) was administered to aid post-operative recovery. Animals were left to recover from the surgery under a heating source. Rats were individually housed after the surgery.
Eight weeks after myocardial infarction surgery, rats were randomly assigned to 3 groups (vehicle, H2 and B7-33), re-anaesthetised (2-3% isoflurane) and an osmotic mini-pump (model 2ML4, Alzet, Cupertino, Calif.) implanted intraperitoneally. Vehicle (saline), native H2 relaxin (0.5 mg/kg/day) or B7-33 C11.23S (0.5 mg/kg/day) was continuously administered for 28 days. At the conclusion of treatment, rats were anaesthetized (sodium pentobarbitone, 60 mg/kg i.p.) and the left ventricular end-diastolic pressure determined prior to decapitation and removal of the heart for histological analysis.

[4] = system: RM1 mouse prostate tumour cells; assay: Prostate tumour growth after injection of RM1 cells into prostates of C57BL/6 mice; format: in vivo; settings: day 10 after RM1 cells, s.c. mini-pump from day 2, H2 relaxin 0.15, B7-33 C11.23S 0.075 mg/kg/day, vs untreated
From the text: as §1
H2 relaxin can induce prostate and other tumour growth. To measure the effect of B7-33 C11.23S on tumour growth, 16 five week-old male C57BL/6 mice (obtained from Monash Animal Services) were injected with 5000 RM1 (mouse prostate tumor) cells into their prostates to induce tumor growth. One sub-group of mice n=5) was left untreated until day 10 post-RM1 cell administration. […]

[5] = dose printed as 0.5 mg/mg/day; Samuel et al. 2003; cited from earlier work
[6] = Solubility of relaxin B chain peptides in aqueous solution; settings: aqueous solution

H2 relaxin: Native human relaxin-2: heterodimer of A chain (24 residues) and B1-29 B chain with three disulfide bonds
Percentage of interstitial collagen in the left ventricle (picrosirius red) [1]: significantly reduced
Total left ventricular collagen concentration (hydroxyproline analysis) [1]: significantly reduced
Airway hyper-responsiveness (change in airway resistance to methacholine) ([2]; OVA-induced increase, invasive plethysmography, FIG. 8D): attenuated
Mean airway epithelial thickness ([2]; compared to OVA treatment, FIG. 8B): significantly reduced
Total lung collagen content (hydroxyproline analysis) ([2]; relative to OVA treatment, FIG. 8C): normalised
Percentage of collagen in the interstitial area of the left ventricle ([3]; 0.5 mg/kg/day i.p. mini-pump for 28 days from 8 weeks after MI): significant reduction
Left ventricular end-diastolic pressure (LVEDP) ([3]; 12 weeks after myocardial infarction): reduced
Prostate tumour size [4]: significantly increased tumour size
Circulating levels [5]: 20 to 40 ng/mL
Aqueous solubility (in words) [6]: very soluble
